Reference: patent publication US4708871A, “Antigenically active amino acid sequences” (priority 1983, dated 1987)
Values joined by “and” are separate entries in the source; they are usually repeats but may differ in a detail not shown here. Equal entries are not always repeated. No end group written: not given here.

Tested on: antiserum known to react with the original sequence (FMDV Type A10)
Format: binding, rabbit

Q: With GDLGSI [GDLGSI] as the substance, how does the “Antibody-binding activity, percentage of the mean activity of the six parent sequences” value read?
A: Its value is 105 percentage and 118 percentage and 88 percentage and 98 percentage and 85 percentage and 106 percentage.
